From paper PMC11861906, “Structural basis for lipid-mediated activation of G protein-coupled receptor GPR55” (Nature Communications, 2025)

Target: thromboxane A2 receptor (TBXA2R) (Gα12) (Homo sapiens, UniProt P21731)
Experiment: BRET² G protein dissociation assay, TBXA2R with Gα12
Format: cell-based
Conditions: for Mean (plotted), G protein dissociation BRET² signal: TBXA2R-G12, Fig. 5c source data
Method: G protein dissociation assays were performed according to the original protocols of the TRUPATH BRET² assay[47],[87] but with subtle modifications as previously described[61],[88],[89]. All reagents and cells were obtained from Thermo Fisher Scientific unless indicated otherwise. The coding sequences for the G protein biosensors[47] (Gα12-Rluc8, Gα13-Rluc8, wt Gβ3, and Gγ9-GFP), the wt GPR55, the construct used for cryo-EM (with GFP bearing a G67A mutation to disrupt fluorescence properties[48] for BRET² assays), GPR55 binding pocket mutants (G152^4.56F, G152^4.56W, N171^ECL2Q, N171^ECL2A, T176^5.33A, R253^6.62A), and the wt TBXA2R were codon-optimized for Homo sapiens, gene-synthesized, and sub-cloned into pcDNA^TM3.1(+) between NheI and HindIII restriction sites by GeneArt (Thermo Fisher Scientific). […] Freshly grown cells were washed with Dulbecco’s Balanced Salt Solution (DPBS, cat. #14200075) and detached using trypsin-ethylenediaminetetraacetic acid (trypsin-EDTA) (cat. #25300-062). Then, the cells were reconstituted to 500,000 cells per mL with fresh medium, and 1,000,000 cells were seeded into each well of a 6-well plate. After 3 h incubation at 37 °C and 5% CO2, adherent cells were transfected with 600 ng DNA (1:1:1:1 ratio of plasmid DNA for GPR55, wt Gβ3, Gγ9-GFP, and Gα12-Rluc8 or Gα13-Rluc8). Plasmid DNA was mixed with 1.5 µL Lipofectamine^TM 2000 (cat. #11668027) in Opti-MEM^TM medium (cat. #31985062) and incubated for 20 min. Then, the mixture was added to each well of the 6-well plate following 24 h incubation at 37 °C and 5% CO2. Transfected cells were washed with DPBS, detached using EDTA (Versene, cat. #15040066), and reconstituted into fresh medium at 500,000 cells mL^−1. From this suspension, 50,000 cells were seeded into each well of a white-bottom 96-well plate (Nunc^TM MicroWell^TM 96 wells, cat. #136101) following overnight incubation at 37 °C and 5% CO2. Then, the adherent cells were washed with assay medium [Hank’s balanced salt solution (HBSS, cat. #14065056) plus 20 mM HEPES pH 7.4 (cat. #15630056)] and finally reconstituted into 50 µL of the same medium. […] Methoxy e-Coelenterazine was used as luciferase substrate (Prolume Purple, NanoLight Technology, cat. #369), reconstituted at 1 mM in methanol and diluted to 37.5 µM with assay buffer (7.5 µM final assay concentration). The assay was started by the addition of 20 µL luciferase substrate to each well of the assay plate using a Multidrop^TM Combi reagent dispenser (Thermo Fisher Scientific), followed by 5 min incubation at room temperature. Then, 30 µL of agonist dilutions or DMSO control was added (final DMSO concentration 1.5%), followed by an additional 5 min incubation at room temperature. BRET² measurements were performed with a PHERAstar® FSX microplate reader (BMG LABTECH) using a BRET² filter (donor emission 370–450 nm, acceptor emission 500–530 nm) at the maximum fluorescence gain of 3600. BRET² ratios were calculated by dividing GFP emission signals from Rluc8 emission counts. Buffer-DMSO controls were subtracted from each data point to calculate ΔBRET² ratios. The half-maximal effective concentration (potency, EC50) and maximal effect (efficacy, Emax) were determined by sigmoidal dose-response curve fit with variable slope.

Sequence of thromboxane A2 receptor (TBXA2R) (Gα12) (P21731 whole entry, species assumed): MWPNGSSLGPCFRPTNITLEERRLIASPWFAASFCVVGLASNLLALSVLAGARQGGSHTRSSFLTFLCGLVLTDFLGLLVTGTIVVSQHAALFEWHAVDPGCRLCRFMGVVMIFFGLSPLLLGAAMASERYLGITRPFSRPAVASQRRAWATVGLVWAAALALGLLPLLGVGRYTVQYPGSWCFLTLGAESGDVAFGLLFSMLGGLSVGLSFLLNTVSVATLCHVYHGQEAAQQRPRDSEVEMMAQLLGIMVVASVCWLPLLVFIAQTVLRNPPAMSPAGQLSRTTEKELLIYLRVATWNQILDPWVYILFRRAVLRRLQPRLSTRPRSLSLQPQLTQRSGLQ
Sequence of thromboxane A2 receptor (TBXA2R) (Gα12) (Q03113 whole entry partner, species assumed): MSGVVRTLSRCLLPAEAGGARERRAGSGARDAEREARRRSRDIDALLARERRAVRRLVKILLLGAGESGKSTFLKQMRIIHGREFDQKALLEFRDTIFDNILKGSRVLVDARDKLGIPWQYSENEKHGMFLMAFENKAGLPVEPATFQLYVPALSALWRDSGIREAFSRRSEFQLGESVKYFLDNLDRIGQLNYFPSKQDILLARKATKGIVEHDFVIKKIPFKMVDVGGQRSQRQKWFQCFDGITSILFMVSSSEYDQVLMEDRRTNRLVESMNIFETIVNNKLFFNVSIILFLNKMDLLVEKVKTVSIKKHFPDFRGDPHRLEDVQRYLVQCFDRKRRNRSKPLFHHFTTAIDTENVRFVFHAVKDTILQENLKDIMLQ
Sequence of thromboxane A2 receptor (TBXA2R) (Gα12) (P16520 whole entry partner, species assumed): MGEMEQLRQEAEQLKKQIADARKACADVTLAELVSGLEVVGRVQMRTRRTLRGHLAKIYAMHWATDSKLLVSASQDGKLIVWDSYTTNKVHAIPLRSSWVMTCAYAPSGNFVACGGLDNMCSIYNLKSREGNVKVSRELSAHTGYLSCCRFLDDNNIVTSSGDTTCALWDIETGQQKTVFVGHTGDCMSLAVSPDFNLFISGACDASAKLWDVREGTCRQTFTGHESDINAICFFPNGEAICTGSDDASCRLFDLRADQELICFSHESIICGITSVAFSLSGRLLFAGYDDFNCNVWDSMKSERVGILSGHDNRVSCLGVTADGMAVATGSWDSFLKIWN
Sequence of thromboxane A2 receptor (TBXA2R) (Gα12) (O14610 1-66 partner limits assumed, species assumed): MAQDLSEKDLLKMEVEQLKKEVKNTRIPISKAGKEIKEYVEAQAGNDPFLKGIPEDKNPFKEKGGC

Mean (plotted), G protein dissociation BRET² signal (concentration 300 pM)	Mean (plotted), G protein dissociation BRET² signal (concentration 1e-9 M)	Mean (plotted), G protein dissociation BRET² signal (concentration 3e-9 M)	Mean (plotted), G protein dissociation BRET² signal (concentration 1e-8 M)	Mean (plotted), G protein dissociation BRET² signal (concentration 3e-8 M)	Mean (plotted), G protein dissociation BRET² signal (concentration 1e-7 M)	Mean (plotted), G protein dissociation BRET² signal (concentration 3e-7 M)	Mean (plotted), G protein dissociation BRET² signal (concentration 1e-6 M)	Mean (plotted), G protein dissociation BRET² signal (concentration 3e-6 M)	Mean (plotted), G protein dissociation BRET² signal (concentration 1e-5 M)	Mean (plotted), G protein dissociation BRET² signal (concentration 3e-5 M)	Efficacy ± SEM (%) (TBXA2, Gα12)	pEC50 ± SEM (TBXA2, Gα12)	EC50 (TBXA2R via Gα12, read-out: potency (EC50))	Mean (plotted), G protein dissociation BRET² signal (concentration 10 pM)	Mean (plotted), G protein dissociation BRET² signal (concentration 30 pM)	Mean (plotted), G protein dissociation BRET² signal (concentration 100 pM)	Compound
0.004412	0.004455	0.002143	0.001783	0.001091	-3.229e-5	0.0009853	0.004147	0.0053	0.009359	0.007653							Cc1cccc(N2CCN(C(=O)c3cc(S(=O)(=O)N(C)C)ccc3N3CCCC3)CC2)c1C [ML184, 3-[[4-(2,3-dimethylphenyl)-1-piperazinyl]carbonyl]-N,N-dimethyl-4-(1-pyrrolidinyl)benzenesulfonamide]
-0.007	-0.0104	-0.01228	-0.02818	-0.04678	-0.06592	-0.07783	-0.08315				100 ± 8%	7.62 ± 0.15	24 nM	0.003425	0.003325	-0.00015	CCCCC[C@H](O)/C=C/[C@@H]1[C@@H](C/C=C\CCCC(=O)O)[C@H]2CO[C@@H]1C2 [U-46619]
